Experimental data reported in patent US20240336596A1, “PARP7 INHIBITOR AND USE THEREOF” (NOVOSTAR PHARMACEUTICALS, LTD., priority 2022, published 2024).

tested on: NCI-H1373 cancer cells; experiment: NCI-H1373 cancer cell growth inhibition (CellTiter-Glo, 144 hours); type: cell-based; conditions: Homo sapiens, 144 hours culture
Method: Promega CellTiter-Glo cell activity assay kit (Item No.: Promege-G7573) was used to determine the cell activity. 90 μL NCI-H1373 cell suspension (ATCC, catalog No. CRL-5866, batch No. 58078716) was spread into the pores of the 96-well plate with 3500 cells per well. After 24 hours, the 10 μL prepared 10× compound working solution was added into the pores of the cell culture plate with a final concentration of 10 μM. 3.3333 μM, 1.1111 μM, 0.3704 μM, 0.1235 μM, 0.0412 μM, 0.0137 μM, 0.0046 μM, 0.0015 μM, 0.0005 μM, 10 μL DMSO was added to the solvent control, and the final concentration of DMSO was 0.2%. The 0-day plates were collected for analysis, and after 144 hours of culture, the growth condition of cells was detected according to the instructions of CellTiter-Glo cell activity assay kit. Add 50 μL of CellTiter-Glo working liquid into each hole of the cell culture plate, shake the plates in the dark for 2 minutes until cell lysis, and place at room temperature for 10 minutes to detect the luminous signal (RUL) of each cell hole on the 2104En Vision board reader.
Calculation formula: Growth inhibition rate %=(1−(RLU compound−RLU Day0)/(RLU solvent control−RLU Day0))*100%. The dose-response curves of each compound were fitted by GraphPad Prism 8 to obtain IC50 values.
For the matter, IC50 values less than 0.1 μM are labeled “+++”, values from 0.1 to 1 μM are labeled “++”, and values greater than 1 to 10 μM are labeled “+”.

IC50 | Compound
1 to 10 µM | C[C@@H](CONC(=O)C[C@H]1CCN(c2ncc(C(F)(F)F)cn2)C[C@@H]1O)Nc1cn[nH]c(=O)c1C(F)(F)F [Example 55, 2-((3R,4R)-3-hydroxy-1-(5-(trifluoromethyl)pyrimidin-2-yl)piperidin-4-yl)-N—((S)-2-((6-oxo-5-(trifluoromethyl)-1,6-dihydropyridazin-4-yl)amino)propoxy)acetamide]
1 to 10 µM | C[C@@H](CONC(=O)C[C@H]1CCN(c2ncc(C(F)(F)F)cn2)C[C@H]1O)Nc1cn[nH]c(=O)c1C(F)(F)F [Example 54, 2-((3S,4R)-3-hydroxy-1-(5-(trifluoromethyl)pyrimidin-2-yl)piperidin-4-yl)-N—((S)-2-((6-oxo-5-(trifluoromethyl)-1,6-dihydropyridazin-4-yl)amino)propoxy)acetamide]
1 to 10 µM | [2H]C(C(=O)NOC[C@H](C)Nc1cn[nH]c(=O)c1C(F)(F)F)C1=CCN(c2ncc(C(F)(F)F)cn2)CC1 (some centres unmarked) [Example 62]
1 to 10 µM | C[C@@H](CONC(=O)CN1CCC2(CCN(c3ncc(C(F)(F)F)cn3)CC2)C1)Nc1cn[nH]c(=O)c1C(F)(F)F [Example 56, (S)—N-(2-((6-oxo-5-(trifluoromethyl)-1,6-dihydropyridazin-4-yl)amino)propoxy)-2-(8-(5-(trifluoromethyl)pyrimidin-2-yl)-2,8-diazaspiro(4.5)decan-2-yl)acetamide]
1 to 10 µM | C[C@@H](CONC(=O)C=C1CCN(c2ncc(C(F)(F)F)cn2)CC1)Nc1cn[nH]c(=O)c1C(F)(F)F [Example 20, (S)—N-(2-((6-oxo-5-(trifluoromethyl)-1,6-dihydropyridazin-4-yl)amino)propoxy)-2-(1-(5-(trifluoromethyl)pyrimidin-2-yl)piperidin-4-ylidene)acetamide]
1 to 10 µM | C[C@@H](CONC(=O)CC1CCN(c2ncc3c(n2)CCC3=O)CC1)Nc1cn[nH]c(=O)c1C(F)(F)F [Example 42, (S)—N-(2-((6-oxo-5-(trifluoromethyl)-1,6-dihydropyridazin-4-yl)amino)propoxy)-2-(1-(5-oxo-6,7-dihydro-5H-cyclopenta(d)pyrimidin-2-yl)piperidin-4-yl)acetamide]
1 to 10 µM | CC1CN(c2ncc(C(F)(F)F)cn2)CCC1CC(=O)NOC[C@H](C)Nc1cn[nH]c(=O)c1C(F)(F)F (stereo partly drawn) [Example 52, 2-(3-methyl-1-(5-(trifluoromethyl)pyrimidin-2-yl)piperidin-4-yl)-N—((S)-2-((6-oxo-5-(trifluoromethyl)-1,6-dihydropyridazin-4-yl)amino)propoxy)acetamide]
0.1 to 1 µM | C[C@@H](CONC(=O)CC1CCN(c2ccc(C(F)(F)F)cn2)CC1)Nc1cn[nH]c(=O)c1C(F)(F)F [Example 32, (S)—N-(2-((6-oxo-5-(trifluoromethyl)-1,6-dihydropyridazin-4-yl)amino)propoxy)-2-(1-(5-(trifluoromethyl)pyridin-2-yl)piperidin-4-yl)acetamide]
1 to 10 µM | C[C@@H](CON(C)C(=O)CC1CCN(c2ncc(C(F)(F)F)cn2)CC1)Nc1cn[nH]c(=O)c1C(F)(F)F [Example 45, (S)—N-methyl-N-(2-((6-oxo-5-(trifluoromethyl)-1,6-dihydropyridazin-4-yl)amino)propoxy)-2-(1-(5-(trifluoromethyl)pyrimidin-2-yl)piperidin-4-yl)acetamide]
0.1 to 1 µM | C[C@@H](CONC(=O)CC1CCN(c2ccc(C#N)cn2)CC1)Nc1cn[nH]c(=O)c1C(F)(F)F [Example 34, (S)-2-(1-(5-cyanopyridin-2-yl)piperidin-4-yl)-N-(2-((6-oxo-5-(trifluoromethyl)-1,6-dihydropyridazin-4-yl)amino)propoxy)acetamide]
1 to 10 µM | C[C@@H](CONC(=O)CC1CCN(c2ncc3c(n2)CC[C@@]3(C)O)CC1)Nc1cn[nH]c(=O)c1C(F)(F)F [Example 61]
